# Earlier results as cited in publication PMC3726336, “Product inhibition of cellulases studied with ^14C-labeled cellulose substrates” (Biotechnology for Biofuels, 2013).
# Biological target: T1, TrCel7B (Trichoderma reesei, UniProt P07981)
# T1 construct: TrCel7B, TrCel5A, and TrCel12A were purified from the culture filtrate of Tr QM 9414; made in house; host or cells: Trichoderma reesei QM 9414 culture filtrate (native producer)
# Set-up: method as in PMID 15129433
# Conditions: 3H-reduced amorphous cellulose substrate, read-out: apparent Ki value; cited from earlier work
# T1 sequence (P07981 23-459): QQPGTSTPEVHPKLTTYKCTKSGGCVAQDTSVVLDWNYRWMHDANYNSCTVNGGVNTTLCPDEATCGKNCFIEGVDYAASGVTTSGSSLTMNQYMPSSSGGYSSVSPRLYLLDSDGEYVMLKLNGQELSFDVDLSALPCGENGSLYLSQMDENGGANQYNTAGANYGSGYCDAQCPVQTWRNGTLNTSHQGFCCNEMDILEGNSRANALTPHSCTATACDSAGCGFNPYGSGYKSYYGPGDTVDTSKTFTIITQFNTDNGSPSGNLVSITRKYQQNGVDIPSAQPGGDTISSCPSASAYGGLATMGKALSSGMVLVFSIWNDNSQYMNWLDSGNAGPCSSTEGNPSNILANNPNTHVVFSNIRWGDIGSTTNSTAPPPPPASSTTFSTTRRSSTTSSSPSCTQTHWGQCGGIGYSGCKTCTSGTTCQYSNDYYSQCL
smiles,measurement,value
"O=C[C@H](O)[C@@H](O)[C@H](O[C@@H]1O[C@H](CO)[C@@H](O)[C@H](O)[C@H]1O)[C@H](O)CO [cellobiose, Cellobiose]",Ki,11 ± 3 mM
